Measured values published in publication PMC7472354, “Enhanced Antimicrobial Activity of N-Terminal Derivatives of a Novel Brevinin-1 Peptide from The Skin Secretion of Odorrana schmackeri” (Toxins, 2020).
≈ marks a conversion by molar mass, not a printed value. Where a SMILES comes first, the peptide text is derived from it.

Assays:
horse red blood cells = assay: Haemolysis assay and therapeutic index; conditions: 2% horse red blood cells in PBS, 2 h, 37 °C, absorbance 570 nm; best-fitted curve
Method: The haemolytic activity of synthetic peptides was determined using the horse red blood cells that were extracted from the de-fibroblast whole horse blood (TCS Biosciences Ltd. Buckingham, UK). […] Briefly, the red blood cells were harvested and washed using PBS until all broken red blood cells were removed. Then, a 2% cell suspension was prepared using PBS. The peptide concentrations were set as antimicrobial activity assay and mixed with the red blood cells in the microcentrifuge tubes. After a 2 h-incubation at 37 °C, the tubes were centrifuged and the suspension was transferred into a clear 96 well plate. The absorbance of released haemoglobin in the suspension was detected at 570 nm by a plate reader. Besides, the red blood cells treated with PBS and 1% Triton X-100 were used as the negative and positive controls, respectively. […] The therapeutic index (TI) was further determined as below:(1) TI=HC50/product of n MICsn,

[1] = test system: Enterococcus faecalis (NCTC 12697); assay type: cell-based
Method: (§1) The minimal inhibitory concentrations (MICs) and minimum bactericidal concentrations (MBCs) were evaluated to determine the antimicrobial activity of synthetic peptides. The microorganisms employed in the study are two kinds of Gram-negative bacteria, Escherichia coli (NCTC 10418) and Pseudomonas aeruginosa (ATCC 27853), three kinds of Gram-positive bacteria, Staphylococcus aureus (NCTC 10788), Methicillin-resistant Staphylococcus aureus (MRSA, ATCC 12493) and Enterococcus faecalis (NCTC 12697) and a yeast, Candida albicans (NCPF 1467), as indicated previously. […] The sterilised broth medium was used as the positive control and the microorganism cultured in the medium only was treated as the negative control. […] The MBC results were defined as the lowest bactericidal concentrations of peptide. The antimicrobial activity of peptides was tested by monitoring the absorbance at 550 nm using an ELISA plate reader (Biolise BioTek EL808, Winooski, VT, USA).

[2] = test system: Candida albicans (NCPF 1467); assay type: cell-based
Method: as §1

[3] = test system: Escherichia coli (NCTC 10418); assay type: cell-based
Method: as §1

[4] = test system: Staphylococcus aureus (NCTC 10788); assay type: cell-based
Method: as §1

[5] = test system: Methicillin-resistant Staphylococcus aureus (MRSA, ATCC 12493); assay type: cell-based
Method: as §1

[6] = test system: Pseudomonas aeruginosa (ATCC 27853); assay type: cell-based
Method: as §1

MIC ([1]; NCTC 12697, 24 h): > 512 µM | MIC ([2]; NCPF 1467, 24 h): 256 µM (≈ 314 µg/mL) | MIC ([3]; NCTC 10418, 24 h): > 512 µM | MIC ([4]; NCTC 10788, 24 h): 256 µM (≈ 314 µg/mL) | MIC ([5]; ATCC 12493, 24 h): > 512 µM | MIC ([6]; ATCC 27853, 24 h): > 512 µM
Structure (SMILES): CC[C@H](C)[C@H](NC(=O)[C@H](CCCCN)NC(=O)[C@@H]1CCCN1C(=O)[C@H](CC(C)C)NC(=O)[C@@H](N)Cc1ccccc1)C(=O)N[C@@H](CC(C)C)C(=O)N[C@@H](CCCCN)C(=O)N[C@H](C(=O)N[C@@H](C)C(=O)N[C@@H](C)C(=O)N[C@@H](CCCCN)C(N)=O)C(C)C [OSc] (H-FLPKILKVAAK-NH2)
HC50 (concentration causing 50% haemolysis of the red blood cells) (horse red blood cells): >512 µM | MBC ([1]; NCTC 12697, 18 h): > 512 µM | MBC ([2]; NCPF 1467, 18 h): > 512 µM | MBC ([3]; NCTC 10418, 18 h): > 512 µM | MBC ([4]; NCTC 10788, 18 h): > 512 µM | MBC ([5]; ATCC 12493, 18 h): > 512 µM | MBC ([6]; ATCC 27853, 18 h): > 512 µM
